Laboratory results published in patent publication US20070112013A1, “Method of modulating ion channel functional activity” (Australian National University, priority 1998, published 2007).

How the values were obtained:
HIV-1 [1] = assay: p24 ELISA of HIV virion production in human monocytes and macrophages; format: cell-based
Description: FIG. 7 is a graphical representation of the effect of HMA on HIV virion production in monocytes and monocyte-derived macrophages. HIV in culture supernatants was assayed at various days post-infection by detection of p24 antigen using a quantitative ELISA method. Solid black bars represent HIV-infected cells exposed to 10 μM HMA. Hatched bars are control cells not exposed to drug.
Human monocytes were isolated from peripheral blood and cultured either for 24 hr (one day old monocytes) or for 7 days to allow differentiation into monocyte derived macrophages (MDM). […] The progression and extent of viral replication was assayed using either an HIV DNA PCR method (Fear et al, 1998) or an ELISA method to quantitate p24 in culture supernatants (Kelly et al, 1998).
(§1) Subsequent tests were carried out to establish whether there was any anti-viral activity of HMA and DMA. Two tests were performed to characterise the effects of the drugs on HIV replication in human monocytes and macrophages: a) A PCR based assay was used to detect newly synthesised DNA arising from reverse transcription of the HIV genome, an early stage in virus replication; b) An ELISA method was used to quantitate production of the viral protein p24, reflecting a later stage in the replication process.

HIV-1 [2] = assay: PCR based assay of newly synthesised HIV DNA in human monocytes and macrophages; format: cell-based; conditions: 50 μM
Description: Human monocytes were isolated from peripheral blood and cultured either for 24 hr (one day old monocytes) or for 7 days to allow differentiation into monocyte derived macrophages (MDM). These cells were then exposed to cell-free preparations of HIV isolates and allowed to absorb for 2 hr before complete aspiration of the medium, washing once with virus-free medium and resuspension in fresh medium. The cells were exposed to 50-10 μM HMA or DMA either 24 hr prior to infection or after infection. Subsequent HIV replication, at various times after infection, was compared in cells exposed to drugs and in cells not exposed to drugs (controls). The progression and extent of viral replication was assayed using either an HIV DNA PCR method (Fear et al, 1998) or an ELISA method to quantitate p24 in culture supernatants (Kelly et al, 1998).
as §1

Vpu ion channel [3] = target: T1, Vpu ion channel (Human immunodeficiency virus type 1 group M subtype B, UniProt P05919); assay: Vpu ion channel activity in planar lipid bilayers; format: biochemical, HIV-1; conditions: concentrations of 50-250μM
T1 construct: The vpu ORF was cloned in-frame at the 3′ end of the GST gene in p2GEX to generate p2GEXVpu; GST (N, cleaved yes); made in house; host or cells: E. coli XL1-blue containing p2GEXVpu
T1 sequence (P05919 whole entry): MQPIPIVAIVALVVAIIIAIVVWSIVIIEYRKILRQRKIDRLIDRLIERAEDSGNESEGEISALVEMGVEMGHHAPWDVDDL
Text: FIG. 6 is a graphical representation of the inhibition of Vpu ion channel activity by 5-(N,N-hexamethylene)-arniloride (HMA) in planar lipid bilayers. The three traces represent typical Vpu channel activity observed in the presence of the indicated concentrations of HMA. The solid line indicates the zero current level. Mean currents (±variance), calculated for continuous channel recordings of at least 30 seconds duration, are plotted in the graph for each of the three drug concentrations.
Purified Vpu was tested for its ability to induce channel activity in planar lipid bilayers using standard techniques as described elsewhere (Miller, 1986; and Piller et al, 1996). The solutions in the CIS and TRANS chambers were separated by a Delrin™ plastic wall containing a small circular hole of approximately 100 μm diameter across which a lipid bilayer was painted so as to form a high resistance electrical seal. Bilayers were painted from a mixture (8:2) of palrnitoyl-oleoly-phosphatidyl-ethanolamine and palmitoyl-oleoly-phosphatidyl-choline (Avanti Polar Lipids, Alabaster, Alabama) in n-decane. The solutions in the two chambers contained MES buffer (10 mM, pH 6.0) to which various NaCl or KCl concentrations were added. Currents were recorded with an Axopatch™ 200 amplifier. The electrical potential between the two chambers could be manipulated between ±200 mV (TRANS relative to grounded CIS). Aliquots containing Vpu were added to the CIS chamber either as a detergent solution or after incorporation of the protein into phospholipid vesicles. The chamber was stirred until currents were observed.

Vpu ion channel [4] = target: T1, Vpu ion channel; assay: Bio-assay for Vpu channel blockers: growth of E. coli XL1-blue expressing Vpu on plates lacking adenine; format: cell-based, HIV-1; conditions: XL1-blue E. coli containing pPL-Vpu, medium lacking adenine, 37° C.
Description: FIG. 5 is a graphical representation of the screening of drugs for potential Vpu channel blockers. […] Numbers 6-11 are located at the sites of application of various drugs being tested, which were applied in 3μl drops and allowed to soak into the agarose. The plate was then incubated at 37° C. for 48hr prior to being photographed. The background grey shade corresponds to areas of no bacterial growth. The bright circular area around “10” represents bacterial cell growth as a result of application of adenine at that location (positive control).
As part of a search for drugs that block the Vpu ion channel, a novel bio-assay was developed to facilitate the screening process which would be prohibitively slow if performed in the bilayer assay (Ewart et al, 1996). This bio-assay is based on the observation that expression of Vpu in E.coli results in an active Vpu channel located in the plasmalemma that dissipates the transmembrane sodium gradient. As a consequence of this Vpu channel activity, metabolites whose accumulation within the cells is mediated by a sodium dependent co-transporter (for example proline or adenine) leak out of the cell faster than they can be synthesised so that the metabolites' intracellular levels become limiting for growth of the cell. Thereby, an E. coli cell expressing Vpu is unable to grow in minimal drop-out media lacking adenine or proline. However, in the presence of a drug that blocks the Vpu channel, the cell is once again able to re-establish its transmembrane sodium gradient—due to the action of other ion pumps in the membrane—and the leakage of metabolites is prevented enabling growth.
It was observed that, due to an uncharacterised mutation in the adenine synthesis pathway, growth of E. coli cells of the XL1-blue strain expressing Vpu at 37° C. was dependant on the presence of adenine in the medium. […]

HIV = assay: Effect on HIV replication (test not specified); format: cell-based

Structure (SMILES) | HIV virion synthesis (p24 ELISA) (HIV-1 [1]; 50 μM, data not shown) | synthesis of HIV DNA in the cells (HIV-1 [2]) | inhibition of Vpu ion-channel activity (Vpu ion channel [3]) | HIV virion synthesis (p24 ELISA) (HIV-1 [1]; 10 μM, monocytes (FIG. 7A) and macrophages (FIG. 7B)) | halo of bacterial growth around the site of application (inhibition of Vpu channel) (Vpu ion channel [4]) | halo of bacterial growth around the site of application (inhibition of Vpu channel) (Vpu ion channel [4]; listed as 5-(N,N-hexamethylene)-anmiloride) | effect on HIV replication (HIV)
CN(C)c1nc(N)c(C(=O)N=C(N)N)nc1Cl [DMA, 5-(N,N-Dimethyl)-Amiloride] | clear inhibition of HIV virion synthesis | inhibited synthesis of HIV DNA | inhibit channel activity, though not as potently as HMA | – | – | – | –
NC(N)=NC(=O)c1nc(Cl)c(N2CCCCCC2)nc1N [HMA, 5-(N,N-Hexamethylene)-Amiloride] | – | – | block ion flow through the channel | clear inhibition of HIV virion synthesis | a halo of growth | smaller halo of bacterial growth | –
N=C(N)NC(=O)c1nc(Cl)c(N)nc1N [amiloride, reference compound] | – | – | not active as a channel blocker | – | did not produce a halo of bacterial growth | – | no effect on HIV replication
